Measurements reported in the supplement of paper PMC5908809.

Assays:
NK-YS (IL-2 2.5 ng/mL) [1] = test: drug sensitivity score (DSS) (DSS units); higher = more sensitive; extreme values may be limits of the assay; conditions: 72 h
[2] = system: normal primary NK cells, pool 2 (3 donors) (IL-2 2.5 ng/mL); test: as above; conditions: 72 h
NK-92 (IL-2 2.5 ng/mL) [3] = test: as above; conditions: 72 h
KAI3 (IL-2 2.5 ng/mL) [4] = test: as above; conditions: 72 h
YT (IL-2 2.5 ng/mL) [5] = test: as above; conditions: 72 h
[6] = system: normal primary NK cells, pool 1 (3 donors), resting (IL-2 0 ng/mL); test: as above; conditions: 72 h
NKL (IL-2 2.5 ng/mL) [7] = test: as above; conditions: 72 h
[8] = system: normal primary NK cells, pool 1 (3 donors) (IL-2 2.5 ng/mL); test: as above; conditions: 72 h
[9] = system: normal primary NK cells, pool 3 (3 donors) (IL-2 2.5 ng/mL); test: as above; conditions: 72 h
IMC-1 (IL-2 20 ng/mL) [10] = test: as above; conditions: 72 h
SNK-6 (IL-2 2.5 ng/mL) [11] = test: as above; conditions: 72 h
KHYG-1 (IL-2 2.5 ng/mL) [12] = test: as above; conditions: 72 h
DERL-7 (IL-2 2.5 ng/mL) [13] = test: as above; conditions: 72 h
[14] = system: normal NK cells expanded with K562-aAPC; test: as above; conditions: 72 h; IL-2 2.5 ng/mL
Protocol: (§1)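 Drug sensitivity and resistance testing on K562-aAPC-expanded normal NK cells: 5 concentrations (10-fold steps over a 10,000-fold range), 72 h at 37 °C, viability by CellTiter-Glo normalised to DMSO and benzethonium chloride controls; DSS from the fitted curve.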

NK-YS (IL-2 2.5 ng/mL) [15] = test: percent inhibition of viability; higher = more inhibition; conditions: 72 h
[16] = system: normal primary NK cells, pool 2 (3 donors) (IL-2 2.5 ng/mL); test: as above; conditions: 72 h
NK-92 (IL-2 2.5 ng/mL) [17] = test: as above; conditions: 72 h
KAI3 (IL-2 2.5 ng/mL) [18] = test: as above; conditions: 72 h
YT (IL-2 2.5 ng/mL) [19] = test: as above; conditions: 72 h
[20] = system: normal primary NK cells, pool 1 (3 donors), resting (IL-2 0 ng/mL); test: as above; conditions: 72 h
NKL (IL-2 2.5 ng/mL) [21] = test: as above; conditions: 72 h
[22] = system: normal primary NK cells, pool 1 (3 donors) (IL-2 2.5 ng/mL); test: as above; conditions: 72 h
[23] = system: normal primary NK cells, pool 3 (3 donors) (IL-2 2.5 ng/mL); test: as above; conditions: 72 h
IMC-1 (IL-2 20 ng/mL) [24] = test: as above; conditions: 72 h
SNK-6 (IL-2 2.5 ng/mL) [25] = test: as above; conditions: 72 h
KHYG-1 (IL-2 2.5 ng/mL) [26] = test: as above; conditions: 72 h
DERL-7 (IL-2 2.5 ng/mL) [27] = test: as above; conditions: 72 h
[28] = system: normal NK cells expanded with K562-aAPC; test: as above; conditions: 72 h, IL-2 2.5 ng/mL
Protocol: as §1

C[C@]12CC[C@@H]3c4ccc(O)cc4C[C@@H](CCCCCCCCC[S+]([O-])CCCC(F)(F)C(F)(F)F)[C@H]3[C@@H]1CC[C@@H]2O (stereo partly drawn) [Fulvestrant] (max concentration tested 1000 nM)
Conditions | drug sensitivity score
DERL-7 (IL-2 2.5 ng/mL) [13] | 0
IMC-1 (IL-2 20 ng/mL) [10] | 0.29
KAI3 (IL-2 2.5 ng/mL) [4] | 1.68
KHYG-1 (IL-2 2.5 ng/mL) [12] | 0
NK-92 (IL-2 2.5 ng/mL) [3] | 1.6
NK-YS (IL-2 2.5 ng/mL) [1] | 0.29
NKL (IL-2 2.5 ng/mL) [7] | 3.35
SNK-6 (IL-2 2.5 ng/mL) [11] | 0
YT (IL-2 2.5 ng/mL) [5] | 1.09
[2] | 0
[6] | 2.33
[8] | 0
[9] | 0
[14] | 0

percent inhibition of viability [%]
Conditions | 0.1 nM | 1 nM | 10 nM | 100 nM | 1000 nM
DERL-7 (IL-2 2.5 ng/mL) [27] | -6.65 | 4.87 | 1.14 | -1.33 | 2.61
IMC-1 (IL-2 20 ng/mL) [24] | -8.22 | -3.8 | -1.67 | -1.37 | 16.7
KAI3 (IL-2 2.5 ng/mL) [18] | -10.2 | -0.09 | 8.43 | 5.9 | 26.5
KHYG-1 (IL-2 2.5 ng/mL) [26] | -10.8 | -4.41 | -2.37 | -6.26 | 7.16
NK-92 (IL-2 2.5 ng/mL) [17] | -8.22 | -4.79 | -0.7 | -0.61 | 35.1
NK-YS (IL-2 2.5 ng/mL) [15] | -4.05 | -5.76 | -3.52 | 0.56 | 15.3
NKL (IL-2 2.5 ng/mL) [21] | -3.73 | 1.23 | 1.02 | 9.49 | 38.2
SNK-6 (IL-2 2.5 ng/mL) [25] | -16.9 | 6.87 | -25.7 | -23.9 | -13.9
YT (IL-2 2.5 ng/mL) [19] | -6.18 | 3.96 | 7.53 | -1.76 | 28.7
[16] | -0.86 | -4.87 | 4.79 | 2.49 | 3.75
[20] | 7.52 | -6.84 | 15.3 | 7.9 | 31.3
[22] | -3.4 | -8.82 | 2.76 | -0.05 | -2.99
[23] | 6.08 | 3.62 | 2.89 | -5.25 | -3.36
[28] | -7.38 | -10.5 | -9.28 | -0.53 | 6.13

O=C(NOCCO)c1ccc2cncn2c1Nc1ccc(I)cc1F [GDC-0623] (max concentration tested 2500 nM)
Conditions | drug sensitivity score
DERL-7 (IL-2 2.5 ng/mL) [13] | 4.82
IMC-1 (IL-2 20 ng/mL) [10] | 0.89
KAI3 (IL-2 2.5 ng/mL) [4] | 2.53
KHYG-1 (IL-2 2.5 ng/mL) [12] | 13
NK-92 (IL-2 2.5 ng/mL) [3] | 0.89
NK-YS (IL-2 2.5 ng/mL) [1] | 0.81
NKL (IL-2 2.5 ng/mL) [7] | 16.7
SNK-6 (IL-2 2.5 ng/mL) [11] | 0
YT (IL-2 2.5 ng/mL) [5] | 0
[2] | 0.54
[6] | 0.97
[8] | 0.57
[9] | 0
[14] | 0

percent inhibition of viability [%]
Conditions | 0.25 nM | 2.5 nM | 25 nM | 250 nM | 2500 nM
DERL-7 (IL-2 2.5 ng/mL) [27] | 1.53 | 2.87 | 4.11 | 20.2 | 49.3
IMC-1 (IL-2 20 ng/mL) [24] | -4.83 | -0.98 | -7.63 | -7.39 | -5.55
KAI3 (IL-2 2.5 ng/mL) [18] | -1.35 | 0.84 | 4.63 | 16.2 | 24.8
KHYG-1 (IL-2 2.5 ng/mL) [26] | -2.63 | 1.52 | 26.2 | 53.6 | 53.1
NK-92 (IL-2 2.5 ng/mL) [17] | -2.15 | -3.76 | -6.69 | -7.14 | -20.9
NK-YS (IL-2 2.5 ng/mL) [15] | -3.81 | -3.05 | 2.89 | 12.4 | 10.4
NKL (IL-2 2.5 ng/mL) [21] | -5.9 | -3.61 | 37.9 | 65.4 | 62.6
SNK-6 (IL-2 2.5 ng/mL) [25] | 6.88 | -4.38 | -13.8 | -14.5 | -33.3
YT (IL-2 2.5 ng/mL) [19] | 0.15 | -1.83 | -0.28 | 6.96 | -0.89
[16] | 0.23 | -3.52 | 5.29 | 8.89 | 14.6
[20] | -7.6 | 7.27 | 7.92 | 9.81 | 15.9
[22] | -9.21 | -4.95 | 0.24 | 3.46 | 15.2
[23] | -5.35 | -2.96 | -2.99 | 19.2 | 1.26
[28] | -1.46 | -4.58 | 0.15 | 3.69 | -1.38
